Experimental findings from PubChem BioAssay (NCI) are described below.

Holding throughout (test): NCI-60 cell line screen, 48 h
Experiment [1] relates to MDA-N.
For experiment [2], the system named is LOX IMVI melanoma.
Experiment [3] relates to NCI-H226 lung.
For experiment [4], the system named is HCT-116 colon.
Experiment [5] deals with SK-OV-3 ovarian.
In experiment [6] the test system is HOP-62 NSCLC.
Experiment [7] has as its system UO-31 renal.
The subject of experiment [8] is OVCAR-8 ovarian.
The test system of experiment [9] is A549 NSCLC.
The test system of experiment [10] is EKVX NSCLC.
The subject of experiment [11] is CCRF-CEM leukemia.
Experiment [12] deals with UACC-257 melanoma.
For experiment [13], the system named is SK-MEL-5 melanoma.
The subject of experiment [14] is TK-10 renal.
Experiment [15] concerns HT29 colon.
The subject of experiment [16] is SK-MEL-28 melanoma.
Experiment [17] deals with SNB-19 CNS.
Experiment [18] deals with BT-549 breast.

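Compound exposure: 48 hours, 5 concentrations, 96-well plates. At the TGI there is no net growth.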

As for `c1csc(-c2ccsc2-c2cccs2)c1`, the TGI in [1], in experiment [2], in experiment [3], in [4], in [5] and in experiment [6] was over 100 µM in each case. Also, the TGI in [7] is over 100 µM; in experiment [8], over 100 µM; in experiment [9], 61 µM; in [10], over 100 µM; in experiment [11], over 100 µM; in [12], over 100 µM. The TGI in [13], in experiment [14] and in experiment [15] was over 100 µM each time.

As to `Nc1ncn2c(n1)nc1ccccc12`, the TGI in [16], in [1], in experiment [3], in [4], in experiment [5] and in [7] was over 100 µM in each case. Further, the TGI in experiment [8], in experiment [9], in experiment [10], in [11], in experiment [12] and in experiment [13] was over 100 µM throughout. The TGI in experiment [17], in experiment [18], in experiment [14] and in experiment [15] was over 100 µM each time.

For `CCOC(=O)Nc1ccc2c(c1)c(CCCCCCc1nc3ccccc3c3ccc(NC(=O)OCC)cc13)nc1ccccc12`, the TGI in [16] was over 100 µM; in [1], over 100 µM; in experiment [2], 42.5 µM; in [3], 81 µM; in experiment [4] it was over 100 µM; in experiment [5] it was 85.1 µM. Also, the TGI in experiment [6] was 64.2 µM; in experiment [7], over 100 µM; in experiment [8] it was 61.3 µM; in experiment [9], over 100 µM; in experiment [10] it was over 100 µM; in experiment [11], over 100 µM. In addition, the TGI in [12] was over 100 µM; in [13], over 100 µM; in [17] it was over 100 µM; in experiment [14], 84.8 µM; in [15] it was over 100 µM.

As for `COc1ccc2c3c([nH]c2c1)CCN(CCCC(=O)c1ccc(F)cc1)C3`, the TGI in experiment [16] worked out at 29.3 µM; in experiment [1] it was 35.1 µM; in experiment [2], 26.7 µM; in [3], 33.2 µM; in experiment [4], 25 µM; in experiment [5], 36.6 µM. The TGI came to 27 µM in experiment [6]; 27.5 µM in [7]; 29.1 µM in experiment [8]; 32.1 µM in experiment [9]; 25.8 µM in [10]; 54.9 µM in experiment [11]. Moreover, the TGI stood at 31.7 µM in experiment [12]; 26 µM in [13]; 28.2 µM in experiment [17]; 29.1 µM in experiment [14]; 18.3 µM in experiment [15].

As for `CC1(C)CCC(C)(C)C1C(=O)NC(O)C(=O)O` (stereo unspecified), the TGI in experiment [16], in experiment [1], in experiment [2], in experiment [3], in experiment [4] and in experiment [5] was over 100 µM each time. Moreover, the TGI in experiment [6], in experiment [7], in experiment [8], in [9], in experiment [10] and in experiment [11] was over 100 µM in each case. Also, the TGI in [13], in [17] and in experiment [14] was over 100 µM in each case.

On to `O=c1ccn(C2OC(CO)C(O)C2F)c(=O)n1Cc1ccccc1` (stereo unspecified), for which the TGI in experiment [16], in [1], in [2], in experiment [3], in [4] and in experiment [6] was over 100 µM throughout. Besides, the TGI in experiment [7], in [8], in experiment [9], in experiment [10], in experiment [11] and in [12] was over 100 µM each time. The TGI in [13], in [17], in experiment [14] and in [15] was over 100 µM in each case.

With `CC(=O)Oc1c(-c2ccccc2)sc2ccccc12`, the TGI was 53.1 µM in experiment [16]; 26.4 µM in [2]; 28.8 µM in [3]; 26.1 µM in experiment [4]; 45.7 µM in experiment [6]; 36.6 µM in experiment [7]. Besides, the TGI is over 100 µM in experiment [8]; 37.9 µM in experiment [9]; 53 µM in experiment [10]; 37 µM in [11]; 37 µM in experiment [12]; 44.5 µM in experiment [13]. Besides, the TGI in [17] is over 100 µM; in experiment [18] it was 50 µM; in [14], 65.1 µM; in experiment [15] it was 35.3 µM.

For `CCCCCCCCCCCCCCCCOP(=O)(O)OCC(N)C(=O)O` (stereo unspecified), the TGI in [16] is over 100 µM; in experiment [1], 43.1 µM; in experiment [2], 28.2 µM; in [3], 50.4 µM; in experiment [4] it was 25.4 µM; in [5] it was 63.8 µM. The TGI in experiment [6] was 45.9 µM; in [7], 30.8 µM; in experiment [8], over 100 µM; in experiment [9], 53.1 µM; in [10] it was over 100 µM; in experiment [11] it was 65 µM. Moreover, the TGI in experiment [12] was over 100 µM; in experiment [13], 32.6 µM; in experiment [17], 35.9 µM; in experiment [14] it was 16.5 µM; in [15], over 100 µM.

On to `COC(=O)c1ccc(C)cc1CC1Cc2ccc(C)cc2C1=O` (stereo unspecified), for which the TGI in [16] is 76.7 µM; in experiment [2], 14.8 µM; in experiment [3], 27.2 µM; in experiment [4] it was 19 µM; in [5], 59.5 µM; in experiment [6] it was over 100 µM. Moreover, the TGI in [7] was 64 µM; in [8], 57.5 µM; in [9], 93.5 µM; in [10], 36.6 µM; in [11], 74.5 µM; in experiment [12], 53.6 µM. The TGI in experiment [13] was 19.6 µM; in experiment [17] it was over 100 µM; in experiment [18], 52.6 µM; in experiment [14] it was 46.8 µM; in experiment [15], 11.1 µM.
